Experimental data published in patent EP0933350A1, “Tricyclic retinoids, methods for their production and use” (LIGAND PHARMACEUTICALS INCORPORATED, priority 1994, dated 1996).

Assays:
ME 180 cell line [1] = assay: viability (tetrazolium dye, mitochondrial function); format: cell-based; settings: Homo sapiens, 96 hours, read-out: MTS IC50
RARγ [2] = molecular target: T1, RARγ (Homo sapiens, UniProt P13631); assay: competitive binding of tritiated retinoids to retinoid receptors; settings: competition with tritiated retinoid, Cheng-Prussof equation
T1 sequence (P13631 1-454): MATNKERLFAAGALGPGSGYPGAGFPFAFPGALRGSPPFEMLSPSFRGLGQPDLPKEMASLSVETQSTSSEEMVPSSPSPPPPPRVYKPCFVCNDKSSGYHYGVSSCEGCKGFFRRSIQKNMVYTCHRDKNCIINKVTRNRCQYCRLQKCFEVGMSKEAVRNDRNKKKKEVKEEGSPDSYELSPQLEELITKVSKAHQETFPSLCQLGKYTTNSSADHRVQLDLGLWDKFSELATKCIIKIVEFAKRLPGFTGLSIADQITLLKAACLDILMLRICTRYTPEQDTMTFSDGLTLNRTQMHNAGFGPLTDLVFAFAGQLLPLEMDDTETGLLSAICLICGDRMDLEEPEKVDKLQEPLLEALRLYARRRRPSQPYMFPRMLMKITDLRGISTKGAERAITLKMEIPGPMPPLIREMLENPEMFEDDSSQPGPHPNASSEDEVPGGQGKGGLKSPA

RARγ [3] = molecular target: T1, RARγ; assay: co-transfection assay (RAR/RXR agonist activity, luciferase reporter in CV-1 cells); format: cell-based; settings: potency = EC50, agonist, 40 hours, read-out: RARγ Pot
ME 180 cell line [4] = assay: incorporation of 3H-thymidine (antiproliferative); format: cell-based; settings: Homo sapiens, 96 hours, radiolabeled thymidine incorporation, read-out: TdR IC50
TPA induction of ODC = assay: ornithine decarboxylase (ODC) assay: inhibition of TPA induction of ODC; format: cell-based; settings: concentration required to inhibit the TPA induction of ODC by 80 percent
RARβ = molecular target: T2, RARβ (Homo sapiens, UniProt P10826); assay: co-transfection assay (RAR/RXR agonist activity, luciferase reporter in CV-1 cells); format: cell-based; settings: potency = EC50, agonist, 40 hours, read-out: RARβ Pot
T2 sequence (P10826 1-448 isoform P10826-2): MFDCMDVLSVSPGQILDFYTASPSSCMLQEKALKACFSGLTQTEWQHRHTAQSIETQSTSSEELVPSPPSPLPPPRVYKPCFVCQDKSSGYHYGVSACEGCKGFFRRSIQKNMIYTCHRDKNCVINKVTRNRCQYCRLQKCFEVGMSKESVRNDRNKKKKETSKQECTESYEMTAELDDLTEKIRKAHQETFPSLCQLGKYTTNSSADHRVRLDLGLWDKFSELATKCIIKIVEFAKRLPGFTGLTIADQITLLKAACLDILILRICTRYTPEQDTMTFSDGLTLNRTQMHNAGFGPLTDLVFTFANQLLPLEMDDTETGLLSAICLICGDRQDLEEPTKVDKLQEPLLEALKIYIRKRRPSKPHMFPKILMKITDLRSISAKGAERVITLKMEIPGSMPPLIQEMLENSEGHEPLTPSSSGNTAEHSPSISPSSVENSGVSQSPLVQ

RPMI 8226 cell line = assay: viability (tetrazolium dye, mitochondrial function); format: cell-based; settings: Homo sapiens, 96 hours, read-out: MTS IC50

Row | SMILES | Kd (RARγ [2]) | EC50 (RARγ [3]) | EC50 (RARβ) | IC50 (ME 180 cell line [1]) | IC50 (ME 180 cell line [4]) | IC80 (TPA induction of ODC) | IC50 (RPMI 8226 cell line)
1 | CC(/C=C/C=C1/CCCc2cc3c(cc21)C(C)(C)CCC3(C)C)=C\C(=O)O [Compound 101b, (2E,4E)-3-Methyl-6-[(Z)-3,4,5,6,7,8-hexahydro-5,5,8,8-tetramethyl-2H-anthracen-1-ylidene]hexa-2,4-dienoic acid] | 541 nM | 7 nM | 8 nM | 75 nM | 8 nM | 0.78 nM | 100 nM
2 | CC(/C=C/C=C1/CCOc2cc3c(cc21)C(C)(C)CCC3(C)C)=C\C(=O)O [Compound 144b] | 494 nM | 2 nM | 3 nM | 10 nM | 4 nM | 0.6 nM | 7.5 nM
3 | CC(/C=C/C=C1\CCOc2cc3c(cc21)C(C)(C)CCC3(C)C)=C\C(=O)O [Compound 119b, (2E,4E)-3-Methyl-6-[(E)-2,3,6,7,8,9-hexahydro-6,6,9,9-tetramethylbenzo[g]chromen-4-ylidene]hexa-2,4-dienoic acid] | 87 nM | 1 nM | 1 nM | 2 nM | 0.6 nM | – | 2.6 nM

The next lines start with results.

Row | Kd (RARγ [2]) | EC50 (RARγ [3]) | EC50 (RARβ) | SMILES | IC50 (ME 180 cell line [1]) | IC50 (ME 180 cell line [4]) | IC80 (TPA induction of ODC) | IC50 (RPMI 8226 cell line)
4 | > 1000 nM | > 10000 nM | > 10000 nM | CC(/C=C/CN1CCCCc2cc3c(cc21)C(C)(C)CCC3(C)C)=C\C(=O)O [Compound 138b, (2E,4E)-3-Methyl-6-[7,7,10,10-tetramethyl-2,3,4,5,7,8,9,10-octahydronaphtho[2,3-6]azepinyl)hexa-2,4-dienoic acid] | – | – | – | –
5 | 279 nM | 1 nM | 3 nM | CC(/C=C/C=C1\CCCc2cc3c(cc21)C(C)(C)CCC3(C)C)=C\C(=O)O [Compound 109b, (2E,4E)-3-Methyl-6-[(E)-3,4,5,6,7,8-hexahydro-5,5,8,8-tetramethyl-2H-anthracen-1-ylidene]hexa-2,4-dienoic acid] | 100 nM | 5 nM | 0.08 nM | 10 nM
